Experimental data: patent publication US20200347153A1, “METHODS FOR FORMING INCLUSION COMPLEXES WITH HYDROPHILIC BETA-CYCLODEXTRIN DERIVATIVES AND COMPOSITIONS THEREOF” (priority 2019, published 2020)
“Also recorded” adds a separate entry of the source. Like-named read-outs stand apart in the source and are kept apart here.

Key:
[1] = Stability studies (shelf life, visible changes); format: physicochemical; conditions: visible changes
Procedure: The effects of HPBCD on the shelf life stability of each active agent is studied at pre-determined temperatures for 11 weeks. Real time stability is observed at −17° C., 5° C. and 25° C., and accelerated stability is observed at 40° C. For accelerated stability, one day at 40° C. is equivalent to one week, thus the data represents 77 weeks. […] The vials are then placed in a temperature-controlled oven or refrigerator/freezer. The compounds are checked daily and any visible changes are noted.

[2] = Solubility in water (statements); format: physicochemical
[3] = Phase solubility studies; conditions: active with HPBCD; calculated using Eq. (1)
[4] = room temperature; cited from earlier work
[5] = cited from earlier work
[6] = Skin permeation and delivery, Franz-type vertical diffusion cell; format: in vitro ADME, human; conditions: 0-8 hours
Procedure: Skin permeation was evaluated using a custom-fabricated Franz-type vertical diffusion cell (FDC). […] Fluid samples can be withdrawn for analysis from the receptor fluid. […] Membranes were defrosted, washed and subjected to visual inspection before use. Skin delivery and permeation studies were performed on six (6) replicates per Active formulation. A finite dose was applied to the surface of the skin under nonocclusive conditions. Dose volume was 10 μl (18 mg/cm^2). The dose was spread using a blunt glass rod. Receptor chambers were inserted in a dry block with an external magnetic stir bar drive that accommodated up to 15 Franz cells per block. […] Receptor well temperature was maintained at 32±0.5° C.; skin surface temperature was maintained at 30±1.0° C. Receptor wells were sampled at three time points, namely 8 hr, 24 hr and 48 hr; 300 μl was removed, loaded in a 96-well plate, and stored at 4-8° C. prior to analysis. Samples were analyzed within 5 days of collection. There was no further preparation of the samples prior to analysis. […] The membrane was […] […] Retention of the Actives in the epidermis and delivery of Actives to the dermis was measured by extracting the Active from each layer individually at twenty-four hours using dimethyl sulfoxide (DMSO). […] After the LC-MS or UV testing was complete, samples were analyzed using ChemStation software (Agilent).

NC(=O)c1cccnc1 [Niacinamide]
Stability of Actives at 5° C. ([1]; 5° C., Week 1): 0
Stability of Actives at 25° C. ([1]; Week 1): 0
Stability of Actives at 25° C. ([1]; Week 2): 0
Stability of Actives at 25° C. ([1]; Week 3): 0
Stability of Actives at 25° C. ([1]; Week 4): 0
Stability of Actives at 25° C. ([1]; Week 5): 0
Stability of Actives at 25° C. ([1]; Week 6): 0
Stability of Actives at 25° C. ([1]; Week 7): 0
Stability of Actives at 25° C. ([1]; Week 8): 0
Stability of Actives at 25° C. ([1]; Week 9): 0
Stability of Actives at 25° C. ([1]; Week 10): 0
Stability of Actives at 25° C. ([1]; Week 11): 0
Stability of Actives at 40° C. ([1]; 40° C. accelerated stability, Week 1): 0
solubility in water [2]: strong water solubility
association constant (Kc) for complex formation [3]: 0.79856 M⁻¹

OC[C@H]1O[C@@H]2O[C@H]3[C@H](O)[C@@H](O)[C@@H](O[C@H]4[C@H](O)[C@@H](O)[C@@H](O[C@H]5[C@H](O)[C@@H](O)[C@@H](O[C@H]6[C@H](O)[C@@H](O)[C@@H](O[C@H]7[C@H](O)[C@@H](O)[C@@H](O[C@H]8[C@H](O)[C@@H](O)[C@@H](O[C@H]1[C@H](O)[C@H]2O)O[C@@H]8CO)O[C@@H]7CO)O[C@@H]6CO)O[C@@H]5CO)O[C@@H]4CO)O[C@@H]3CO [β-Cyclodextrin]
solubility in water [4]: approximately 19 mg/mL

1,3-diazacyclopenta-2,4-diene [imidazole]
pKa of conjugate acid (imidazolium ion) [5]: approximately 7.0

C=C(C)[C@@H]1CCC(C)=C[C@H]1c1c(O)cc(CCCCC)cc1O [CBD, Cannabidiol]
Stability of Actives at 25° C. ([1]; Week 1): 0
Stability of Actives at 25° C. ([1]; Week 2): 0
Stability of Actives at 25° C. ([1]; Week 3): 0
solubility in water [2]: completely insoluble in water; also recorded: poor water solubility
delivered dose, transdermal [6]: no amount of CBD was detected as penetrating through the skin
association constant (Kc) for complex formation [3]: 0.42247 M⁻¹
